Here are results for 1 molecule from patent US6924296B2, “Antithrombotic agents” (Eli Lilly and Company, priority 2000, dated 2005).

Structures are written as SMILES. Counter-ions that a name gives are not always drawn.

This assay has as its target human factor Xa (Homo sapiens, UniProt P00742). Nature of the assay: Factor Xa chromogenic substrate inhibitor binding affinity assay (apparent Kass). The note with it: 1.34 nM human factor Xa, 0.18 mM BzIle-Glu-Gly-Arg-pNA; mean value; read-out: Kass (apparent association constant) (converted). How it is done: The inhibition by a compound of the inhibition of a serine protease of the human blood coagulation system or of the fibrinolytic system, as well as of trypsin, is determined in vitro for the particular enzyme by measuring its inhibitor binding affinity in an assay in which the enzyme hydrolyzes a particular chromogenic substrate, for example as described in Smith, G. F.; Gifford-Moore, D.; Craft, T. J.; Chirgadze, N.; Ruterbories, K. J.; Lindstrom, T. D.; Satterwhite, J. H. Efegatran: A New Cardiovascular Anticoagulant. New Anticoagulants for the Cardiovascular Patient; Pifarre, R., Ed.; Hanley & Belfus, Inc.: Philadelphia, 1997; pp. 265-300. The inhibitor binding affinity is measured as apparent association constant Kass which is the hypothetical equilibrium constant for the reaction between enzyme and the test inhibitor compound (I).
Enzyme+I⇄Enzyme−I [formula]
Conveniently, enzyme inhibition kinetics are performed in 96-well polystyrene plates and reaction rates are determined from the rate of hydrolysis of appropriate p-nitroanilide substrates at 405 nm using a Thermomax plate reader from Molecular Devices (San Francisco, Calif.). […] The rates of chromogenic substrate hydrolysis reactions provide a linear relationship with the enzymes studied such that free enzyme can be quantitated in reaction mixtures. […]

Chain of human factor Xa (P00742 235-488 limits assumed): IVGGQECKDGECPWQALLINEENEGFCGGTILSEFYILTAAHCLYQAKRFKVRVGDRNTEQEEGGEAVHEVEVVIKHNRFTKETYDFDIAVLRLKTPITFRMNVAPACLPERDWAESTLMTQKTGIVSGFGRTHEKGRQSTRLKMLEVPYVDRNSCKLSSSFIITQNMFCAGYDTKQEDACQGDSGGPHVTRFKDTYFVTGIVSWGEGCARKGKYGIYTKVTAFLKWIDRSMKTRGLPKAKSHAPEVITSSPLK
Chain of human factor Xa (P00742 41-179 partner limits assumed): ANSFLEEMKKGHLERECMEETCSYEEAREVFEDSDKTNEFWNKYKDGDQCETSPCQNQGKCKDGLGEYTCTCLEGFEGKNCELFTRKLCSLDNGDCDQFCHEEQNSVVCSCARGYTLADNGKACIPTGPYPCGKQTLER

Regarding `O=C(NC1CCN(C(=O)C2CCN(c3ccncc3)CC2)C1)c1ccc2cc[nH]c2c1` (stereo not shown) [Example 1, 3-[(6-Indolyl)carbonyl]amino-1-[[1-(4-pyridinyl)piperidin-4-yl]carbonyl]pyrrolidine Hydrochloride Salt], the Kd is 0.472 µM.
